Reference: ChEMBL document CHEMBL5252513, “Identification of a Benzoisoxazoloazepine Inhibitor (CPI-0610) of the Bromodomain and Extra-Terminal (BET) Family as a Candidate for Human Clinical Trials” (J Med Chem, 2016)

What was measured:
[1] = AUC (0 to infinity) in rat at 10 mg/kg,po; assay type: ADME, organism-based; design: dose 10 mg/kg, route po; details: in vivo
[2] = Intrinsic clearance in rat liver microsomes; assay type: ADME, Microsome
[3] = Unbound AUC in rat at 10 mg/kg,po; assay type: ADME, organism-based; details: in vivo
[4] = Clearance in rat assessed as liver blood flow at 1 mg/kg,iv; assay type: ADME, organism-based; details: in vivo
[5] = Tmax in rat at 10 mg/kg,po; assay type: ADME, organism-based; details: in vivo
[6] = Volume of distribution at steady state in rat at 1 mg/kg,iv; assay type: ADME, organism-based; details: in vivo, read-out: Vdss
[7] = Unbound clearance in rat at 1 mg/kg,iv; assay type: ADME, organism-based; details: in vivo
[8] = biological target: T1, Bromodomain-containing protein 4 (Homo sapiens, UniProt O60885); test: Inhibition of BRD4 BD1 (unknown origin) using biotinylated ligand incubated for 60 mins by TR-FRET assay
[9] = Intrinsic clearance in dog liver microsomes; assay type: ADME, Canis lupus familiaris, Microsome; details: read-out: CLH
[10] = Protein binding in human plasma; assay type: ADME, cell-free; details: read-out: PPB (converted)
[11] = Protein binding in dog plasma; assay type: ADME, cell-free, Canis lupus familiaris; details: read-out: PPB (converted)
[12] = biological target: T1, Bromodomain-containing protein 4; test: Inhibition of BRD4 BD1 in human MV4-11 cells assessed as reduction of MYC RNA expression after 4 hrs by PCR analysis; assay type: cell-based
[13] = Total clearance in rat at 1 mg/kg,iv; assay type: ADME, organism-based; details: in vivo
[14] = Half life in rat plasma at 1 mg/kg,iv; assay type: ADME, organism-based
[15] = Intrinsic clearance in human liver microsomes; assay type: ADME, Microsome; details: read-out: CLH
[16] = Intrinsic clearance in mouse liver microsomes; assay type: ADME, Microsome; details: read-out: CLH
[17] = Oral bioavailability in rat at 10 mg/kg; assay type: ADME, organism-based; details: in vivo
[18] = Protein binding in rat plasma; assay type: ADME, cell-free; details: read-out: PPB (converted)
[19] = Cmax in rat at 10 mg/kg,po; assay type: ADME, organism-based; design: dose 10 mg/kg, route po; details: in vivo
[20] = Protein binding in mouse plasma; assay type: ADME, cell-free; details: read-out: PPB (converted)
[21] = Tmax in rat at 5 mg/kg,po; assay type: ADME, organism-based; details: in vivo
[22] = Oral bioavailability in rat at 5 mg/kg; assay type: ADME, organism-based; details: in vivo
[23] = Cmax in rat at 5 mg/kg,po; assay type: ADME, organism-based; design: dose 5 mg/kg, route po; details: in vivo
[24] = AUC (0 to infinity) in rat at 5 mg/kg,po; assay type: ADME, organism-based; design: dose 5 mg/kg, route po; details: in vivo
[25] = Unbound AUC in rat at 5 mg/kg,po; assay type: ADME, organism-based; details: in vivo

| Structure (SMILES) | predicted hepatic clearance (CLH) [2] | IC50 [8] | predicted hepatic clearance [9] | fraction unbound [10] | fraction unbound [11] | EC50 [12] | predicted hepatic clearance [15] | predicted hepatic clearance [16] | fraction unbound [18] | fraction unbound [20] | also measured |
| --- | --- | --- | --- | --- | --- | --- | --- | --- | --- | --- | --- |
| COc1ccc2c(c1)C(c1ccc(Cl)cc1)=N[C@@H](CC(N)=O)c1onc(C)c1-2 | 35 mL/min/kg | 17 nM | 21 mL/min/kg | 0.05 | 0.03 | 64 nM | 9 mL/min/kg | 26 mL/min/kg | 0.06 | 0.03 | AUC(0-inf) [1]: 8.5 µM·h; fAUC [3]: 0.51 µM·h; QH [4]: 66%; Tmax [5]: 49.8 min; Vd [6]: 1.7 L/kg; CL free [7]: 617 mL/min/kg; clearance [13]: 36.7 mL/min/kg; half-life [14]: 38.4 min; bioavailability [17]: 60%; Cmax [19]: 1600 nM |
| Cc1noc(N)c1-c1ccccc1 |  | 20000 nM |  |  |  |  |  |  |  |  |  |
| Cc1noc2c1-c1ccccc1C(c1ccccc1)=N[C@H]2CC(N)=O | 28 mL/min/kg | 110 nM | 17 mL/min/kg | 0.19 | 0.12 | 250 nM | < 5 mL/min/kg | 10 mL/min/kg | 0.2 | 0.16 |  |
| CCNC(=O)NC1N=C(c2ccc(Cl)cc2)c2ccccc2-c2c(C)noc21 (stereo not drawn) | 29 mL/min/kg | 33 nM | 21 mL/min/kg | 0.03 | 0.02 | 100 nM | 13 mL/min/kg | 38 mL/min/kg | 0.02 | 0.03 |  |
| Cc1nnc2n1-c1ccccc1C(c1ccc(Cl)cc1)=NC2 |  | 1800 nM |  |  |  |  |  |  |  |  |  |
| Cc1noc2c1-c1ccc(-c3ccc(N)nc3)cc1C(c1ccc(Cl)cc1)=N[C@H]2CC(N)=O | 34 mL/min/kg | 7 nM | 25 mL/min/kg | 0.04 | 0.02 | 33 nM | 13 mL/min/kg | 36 mL/min/kg | 0.09 | 0.02 | QH [4]: 230%; Vd [6]: 5.4 L/kg; CL free [7]: 1400 mL/min/kg; clearance [13]: 127 mL/min/kg; half-life [14]: 40.8 min |
| Cc1noc2c1-c1ccccc1C(c1ccc(Cl)cc1)=NC2C(N)=O (stereo not drawn) | 27 mL/min/kg | 15000 nM | 29 mL/min/kg | 0.02 | 0.02 | 4000 nM | 20 mL/min/kg | 32 mL/min/kg |  | 0.01 |  |
| Cc1noc2c1-c1c[nH]c(=O)cc1C(c1ccc(Cl)cc1)=NC2 |  | 530 nM |  |  |  | 1100 nM |  |  |  |  |  |
| Cc1noc2c1-c1ccc(-c3cn(C)cn3)cc1C(c1ccc(Cl)cc1)=N[C@H]2CC(N)=O | < 10 mL/min/kg | 11 nM | 23 mL/min/kg | 0.14 | 0.11 | 30 nM | 11 mL/min/kg | 28 mL/min/kg | 0.14 | 0.11 |  |
| Cc1noc2c1-c1ccccc1C(c1ccc(Cl)cc1)=N[C@H]2CC(N)C(F)(F)F (stereo partly drawn) | 38 mL/min/kg | 11000 nM | 27 mL/min/kg | 0.01 | 0.01 | > 4000 nM | 13 mL/min/kg | 41 mL/min/kg | 0.01 | 0.01 |  |
| Cc1noc2c1-c1cn(C)nc1C(c1ccc(Cl)cc1)=NC2 |  | 590 nM |  |  |  | 2600 nM |  |  |  |  |  |
| CCNC(=O)C[C@@H]1N=C(c2ccc(Cl)cc2)c2ccccc2-c2c(C)noc21 | 42 mL/min/kg | 52 nM | 29 mL/min/kg | 0.02 | 0.02 | 210 nM | 18 mL/min/kg | 61 mL/min/kg | 0.04 | 0.01 |  |
| COc1ccc(C2=N[C@@H](CC(N)=O)c3onc(C)c3-c3ccccc32)cc1 | 33 mL/min/kg | 48 nM | 26 mL/min/kg | 0.12 | 0.14 | 170 nM | 8 mL/min/kg | 83 mL/min/kg | 0.21 | 0.11 |  |
| Cc1nsc2c1C(c1ccc(Cl)cc1)=NCc1onc(C)c1-2 |  | > 80000 nM |  |  |  | > 4000 nM |  |  |  |  |  |
| Cc1noc2c1-c1ccccc1C(c1ccc(Cl)cc1)=NC2 | 40 mL/min/kg |  | 29 mL/min/kg | 0.01 | < 0.01 |  | 15 mL/min/kg | 52 mL/min/kg | 0.01 | 0.01 |  |
| Cc1onc2c1-c1ccccc1C(c1ccc(Cl)cc1)=NC2 |  | 1300 nM |  |  |  |  |  |  |  |  |  |
| COc1nccc2c1C(c1ccc(Cl)cc1)=NCc1onc(C)c1-2 |  | 440 nM |  |  |  |  |  |  |  |  |  |
| CNc1ccc2c(n1)C(c1ccc(Cl)cc1)=NCc1onc(C)c1-2 |  | 59 nM |  |  |  | 440 nM |  |  |  |  |  |
| Cc1cccc2c1C(c1ccc(Cl)cc1)=N[C@@H](CC(N)=O)c1onc(C)c1-2 | 37 mL/min/kg | 13 nM | 24 mL/min/kg | 0.02 | 0.02 | 140 nM | 11 mL/min/kg | 47 mL/min/kg | 0.04 | 0.02 | QH [4]: 76%; Tmax [21]: 120 min; bioavailability [22]: 92%; Vd [6]: 2.5 L/kg; CL free [7]: 1050 mL/min/kg; clearance [13]: 41.7 mL/min/kg; half-life [14]: 59.4 min; Cmax [23]: 1200 nM; AUC(0-inf) [24]: 4.9 µM·h; fAUC [25]: 0.2 µM·h |
| Cc1ccc(C2=N[C@@H](CC(N)=O)c3onc(C)c3-c3ccccc32)cc1 | 49 mL/min/kg | 52 nM | 29 mL/min/kg | 0.1 | 0.08 | 170 nM | 11 mL/min/kg | 78 mL/min/kg | 0.1 | 0.07 |  |
| Cc1noc2c1-c1ccccc1C(c1ccc(Cl)cc1)=N[C@@H]2CC(=O)OC(C)(C)C |  | > 80000 nM |  |  |  |  |  |  |  |  |  |
| Cc1noc2c1-c1ccccc1C(c1ccc(C#N)cc1)=N[C@H]2CC(N)=O | 16 mL/min/kg | 94 nM | < 14 mL/min/kg | 0.11 | 0.22 | 220 nM | 9 mL/min/kg | 29 mL/min/kg | 0.33 | 0.13 | QH [4]: 39%; Tmax [21]: 49.8 min; bioavailability [22]: 56%; Vd [6]: 1.2 L/kg; CL free [7]: 65 mL/min/kg; clearance [13]: 21.7 mL/min/kg; half-life [14]: 39.6 min; Cmax [23]: 1800 nM; AUC(0-inf) [24]: 5.9 µM·h; fAUC [25]: 2 µM·h |
| Cc1noc2c1-c1ccc(=O)n(C)c1C(c1ccc(Cl)cc1)=NC2 |  | 750 nM |  |  |  | 2900 nM |  |  |  |  |  |
| Cc1noc2c1-c1ccccc1C(c1ccc(Cl)cc1)=NN2 |  | 880 nM |  |  |  |  |  |  |  |  |  |
